Laboratory results taken from ChEMBL document CHEMBL1201862, “PubChem BioAssay data set” (2004).
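Tested at 5 concentrations; 48 h exposure; 96-well plates; endpoints linearly interpolated, else capped at highest concentration. Abbreviation: GI50, concentration required for 50% inhibition of growth.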 Calls of active or inactive are those of the source. No stated cut-off is given here; in the data, active = GI50 up to about 1.1 µM and inactive = higher.

Experiments:
Test in all cases: NCI-60 cell line screen, 48 h
[1] = tested on: DMS-273
[2] = tested on: KM-20L2
[3] = tested on: TK-10
[4] = tested on: UACC-62
[5] = tested on: DLD-1
[6] = tested on: HCT-15
[7] = tested on: SK-OV-3
[8] = tested on: K562
[9] = tested on: SF-539
[10] = tested on: A498
[11] = tested on: UO-31
[12] = tested on: EKVX
[13] = tested on: HCT-116
[14] = tested on: HOP-18
[15] = tested on: UACC-257
[16] = tested on: SN12C
[17] = tested on: ACHN
[18] = tested on: SW-620
[19] = tested on: DMS-114
[20] = tested on: KM12
[21] = tested on: CCRF-CEM
[22] = tested on: RXF 393
[23] = tested on: RPMI-8226
[24] = tested on: HOP-92
[25] = tested on: OVCAR-8
[26] = tested on: OVCAR-5
[27] = tested on: M19-MEL
[28] = tested on: OVCAR-3
[29] = tested on: Malme-3M
[30] = tested on: HOP-62
[31] = tested on: 786-0
[32] = tested on: NCI-H460
[33] = tested on: NCI-H226
[34] = tested on: COLO 205
[35] = tested on: MOLT-4
[36] = tested on: NCI-H23
[37] = tested on: SK-MEL-2
[38] = tested on: SR
[39] = tested on: LOX IMVI
[40] = tested on: NCI-H522
[41] = tested on: HL-60
[42] = tested on: LXFL 529
[43] = tested on: A549
[44] = tested on: SK-MEL-28
[45] = tested on: SF-295
[46] = tested on: SF-268
[47] = tested on: HCC 2998
[48] = tested on: M14
[49] = tested on: U-251
[50] = tested on: OVCAR-4
[51] = tested on: SNB-78
[52] = tested on: HT-29
[53] = tested on: IGROV-1
[54] = tested on: SNB-19
[55] = tested on: CAKI-1
[56] = tested on: SNB-75
[57] = tested on: SK-MEL-5
[58] = tested on: XF498
[59] = tested on: T47D
[60] = tested on: PC-3
[61] = tested on: MDA-MB-231
[62] = tested on: MDA-N
[63] = tested on: NCI/ADR-RES
[64] = tested on: BT-549
[65] = tested on: MDA-MB-435
[66] = tested on: Hs-578T
[67] = tested on: MCF7
[68] = tested on: DU-145

Measured: GI50

CN1N=C2c3ccccc3CC[C@H]2C1c1ccccc1 (stereo not given in full)
27 µM: [6]
inactive: [1] 26.6 µM | [2] 36.9 µM | [3] > 100 µM | [4] 32.3 µM | [5] 41.8 µM | [7] 2.56 µM | [8] > 100 µM | [9] 86.5 µM | [10] 72.1 µM | [11] 19.4 µM | [12] 49.3 µM | [13] 18 µM | [14] > 100 µM | [15] 22.3 µM | [16] 42.1 µM | [17] 44.3 µM | [18] 78.2 µM | [19] 22.5 µM | [20] 36.9 µM | [21] > 100 µM | [22] 17 µM | [23] 28.6 µM | [24] 5.25 µM | [25] 41.1 µM | [26] > 100 µM | [27] 15.7 µM | [28] 41.8 µM | [29] 25.5 µM | [30] 47.9 µM | [31] 63.5 µM | [32] 28.9 µM | [33] 27.9 µM | [34] 35.7 µM | [35] > 100 µM | [36] 16.1 µM | [37] 24.5 µM | [38] > 100 µM | [39] 47.1 µM | [40] 17.6 µM | [41] 29.6 µM | [42] 15.4 µM | [43] 35.6 µM | [44] > 100 µM | [45] 35.3 µM | [46] > 100 µM | [47] 85.7 µM | [48] 56.5 µM | [49] 53.5 µM | [50] 23.1 µM | [51] 83.9 µM | [52] 22.9 µM | [53] 85.5 µM | [54] 69.2 µM

COC(=O)CC(CC(=O)C(=O)OC)C(=O)OC (stereo not given)
inactive: [2] > 100 µM | [3] > 100 µM | [4] > 100 µM | [5] > 100 µM | [7] > 100 µM | [8] > 100 µM | [9] > 100 µM | [10] > 100 µM | [11] > 100 µM | [12] > 100 µM | [13] > 100 µM | [15] > 100 µM | [16] > 100 µM | [17] > 100 µM | [18] > 100 µM | [20] > 100 µM | [21] > 100 µM | [22] > 100 µM | [23] > 100 µM | [24] > 100 µM | [25] > 100 µM | [26] > 100 µM | [28] > 100 µM | [29] > 100 µM | [30] > 100 µM | [31] > 100 µM | [32] > 100 µM | [33] > 100 µM | [34] > 100 µM | [35] > 100 µM | [36] > 100 µM | [37] > 100 µM | [39] > 100 µM | [55] > 100 µM | [56] > 100 µM | [41] > 100 µM | [57] > 100 µM | [42] > 100 µM | [43] > 100 µM | [44] > 100 µM | [45] > 100 µM | [47] > 100 µM | [48] > 100 µM | [49] > 100 µM | [51] > 100 µM | [52] > 100 µM | [53] > 100 µM | [54] > 100 µM
> 100 µM: [6]

COc1cccc(Cc2c3cc(OC)ccc3cc[n+]2C)c1
> 100 µM: [6]
inactive: [2] 65.5 µM | [3] > 100 µM | [5] > 100 µM | [8] 36 µM | [10] > 100 µM | [11] > 100 µM | [12] > 100 µM | [15] 21.4 µM | [16] 32.6 µM | [17] > 100 µM | [18] > 100 µM | [20] 40.5 µM | [21] 87.3 µM | [23] 24.7 µM | [25] 73.6 µM | [26] > 100 µM | [28] 47.5 µM | [29] > 100 µM | [30] > 100 µM | [31] > 100 µM | [32] > 100 µM | [35] > 100 µM | [36] 26.6 µM | [37] 72.6 µM | [40] 22.9 µM | [55] > 100 µM | [56] 32.8 µM | [57] 22.4 µM | [58] 12.4 µM | [42] 36.4 µM | [43] > 100 µM | [44] 33.9 µM | [45] > 100 µM | [46] 36.2 µM | [47] 87.9 µM | [48] 67.5 µM | [49] 53.2 µM | [50] 58.5 µM | [51] > 100 µM | [52] 30.3 µM | [54] 43.1 µM

COC(=O)c1ccc(C)cc1CC1Cc2c(C)cccc2C1=O (stereo not given)
3.05 µM: [6]
inactive: [59] 7.93 µM | [3] 11.5 µM | [4] 6.01 µM | [7] 6.21 µM | [8] 2.94 µM | [60] 6.5 µM | [9] 8.17 µM | [10] 4.95 µM | [11] 15.9 µM | [12] 18 µM | [13] 3.58 µM | [15] 10.4 µM | [16] 6.62 µM | [17] 22.2 µM | [18] 3.85 µM | [20] 3.4 µM | [21] 7.05 µM | [22] 10.9 µM | [23] 4.65 µM | [24] 16.9 µM | [25] 14.3 µM | [26] 34.4 µM | [28] 3.96 µM | [61] 2.32 µM | [29] 10.7 µM | [30] 13.6 µM | [62] 1.87 µM | [31] 12.8 µM | [32] 17.8 µM | [33] 13.7 µM | [34] 5.69 µM | [35] 5.56 µM | [36] 12.4 µM | [37] 5.9 µM | [38] 9.35 µM | [63] 3.35 µM | [39] 8.09 µM | [40] 4.46 µM | [55] 6.4 µM | [56] 4.16 µM | [64] 4.99 µM | [41] 4.54 µM | [57] 5.82 µM | [65] 1.82 µM | [43] 7.57 µM | [44] 15.2 µM | [66] 8.55 µM | [45] 7.73 µM | [46] 9.89 µM | [47] 11.1 µM | [48] 9.27 µM | [49] 5.96 µM | [67] 2.11 µM | [50] 25.5 µM | [68] 29.4 µM | [52] 3.04 µM | [53] 5.62 µM | [54] 9.89 µM

CC(C)C(N)=O [ISOBUTYRAMIDE]
> 5000 µM: [6]
inactive: [1] > 5000 µM | [3] > 5000 µM | [4] > 5000 µM | [5] > 5000 µM | [7] > 5000 µM | [8] > 5000 µM | [9] > 5000 µM | [11] > 5000 µM | [13] > 5000 µM | [14] > 5000 µM | [15] > 5000 µM | [16] > 5000 µM | [17] > 5000 µM | [18] > 5000 µM | [19] > 5000 µM | [20] > 5000 µM | [21] > 5000 µM | [22] > 5000 µM | [23] > 5000 µM | [24] > 5000 µM | [25] > 5000 µM | [26] > 5000 µM | [27] > 5000 µM | [29] > 5000 µM | [30] > 5000 µM | [31] > 5000 µM | [32] > 5000 µM | [33] > 5000 µM | [34] > 5000 µM | [35] > 5000 µM | [36] > 5000 µM | [37] > 5000 µM | [38] > 5000 µM | [39] > 5000 µM | [40] > 5000 µM | [55] > 5000 µM | [56] > 5000 µM | [41] > 5000 µM | [57] > 5000 µM | [42] > 5000 µM | [43] > 5000 µM | [44] > 5000 µM | [45] > 5000 µM | [46] > 5000 µM | [48] > 5000 µM | [49] > 5000 µM | [50] > 5000 µM | [51] > 5000 µM | [52] > 5000 µM | [53] > 5000 µM
